Source: paper PMC6934184, “Selective DNA-PKcs inhibition extends the therapeutic index of localized radiotherapy and chemotherapy” (The Journal of Clinical Investigation, 2019)

Biological target: T1, SYK (Homo sapiens, UniProt P43405)
T1 construct: purchased Thermo Fisher Scientific (Life Technologies) SelectScreen
Test: SelectScreen Z'LYTE
Assay type: biochemical
In short: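 Percent values come from Thermo SelectScreen profiling of NU5455, combining activity and binding assays. CSF1R was run in Z'LYTE format at Km app ATP, and CAMK1 in Adapta format with ATP listed at 10.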

SMILES: CN(C(=O)CN1CCOCC1)c1ccc2sc3c(-c4cccc5c(=O)cc(N6CC7CCC(C6)O7)oc45)cccc3c2c1 [NU5455]
- inhibition at 1 µM: -0.2%
